What all share (assay type): biochemical
For one assay, the target named is T1, human HDAC2 (Homo sapiens, UniProt Q92769).
T1 construct: Full length human HDAC2-FLAG was expressed in baculovirus infected Sf9 cells; host or cells: baculovirus infected Sf9 cells
Put plainly: Human HDAC enzyme inhibitor Fluor-de-Lys assay, HDAC2. The note with it: 1.5 nM enzyme, 40 μM substrate BML-KI104, 3 h pre-incubation, 60 min reaction; read-out: HDAC2_IC50. The text has this: (§1) Recombinant human HDAC8 (catalog number BML-SE145-0100) and HDAC10 (catalog number BML-SE559-0050) enzymes, HDAC substrates BML-KI104 and BML-KI178, and HDAC developer solutions BML-KI105 and BML-KI176 were purchased from Enzo Life Sciences (Farmingdale, NY). Recombinant human HDAC5 and HDAC11 were purchased from BPS Bioscience (San Diego, CA)(catalog numbers 50045 and 50021). Substrate Boc-Lys(TFA)-AMC was obtained from Bachem (Bupendorf, Switzerland) (catalog number 1-1985). HDAC inhibitor suberoylanilide hydroxamic acid (SAHA) was obtained from Indofine (Hillsborough Township, NJ) and trichostatin A (TSA) was obtained from Sigma-Aldrich (St. Louis, MO). […] HEPES pH 8.0 was obtained from Boston BioProducts (Ashland, MA), Tween-20 from Fisher Scientific (Hampton, NH)(catalog number BP337), TCEP from Calbiochem and 7.5% bovine serum albumin (BSA) from Life Technologies (Carlsbad, CA) (catalog number 15260037). 384-well, black assay plates were obtained from Corning (Corning, NY) (catalog number 3575).
(§2) Recombinant human HDAC1, HDAC2, and HDAC3/SMRT heterodimer were prepared by Merck Research Laboratories. […] The eluted protein was then passed over an anti-HDAC1 immunoaffinity column to remove any complexes containing HDAC1. […]
(§3) The histone deacetylase activities of HDAC1, HDAC2, HDAC3, HDAC6, and HDAC8 were measured in modified Fluor-de-Lys assays in 384-well format. In this assay, HDAC enzymes are initially incubated with an ε-acetyl (or -trifluoroacetyl)-L-lysine-containing substrate with a C-terminal amide having aminomethylcoumarin as the amine component. HDACs cleave the ε-acetyl group, rendering the resulting product susceptible to AMC cleavage by trypsin. The released AMC is then detected by its fluorescence.
(§4) The HDAC 1, 2 assays employed buffer A, which contained 20 mM HEPES, pH 8.0, 1 mM MgCl2, 137 mM NaCl, 2.7 mM KCl, 0.05% BSA. The HDAC3/SMRT assay employed buffer B, consisting of 20 mM HEPES, pH 8.0, 1 mM MgCl2, 50 mM NaCl, 2.7 mM KCl, 0.05% BSA, 0.005% Tween 20, and 10 μM IP4. The HDAC6 assay employed buffer C, consisting of 20 mM HEPES, pH 8.0, 1 mM MgCl2, 137 mM NaCl, 2.7 mM KCl, 0.5 mM TCEP (Calbiochem) and 0.05% BSA. The HDAC8 assay employed buffer D, consisting of 20 mM HEPES, pH 8.0, 1 mM MgCl2, 100 mM NaCl, 20 mM KCl, 0.1% n-octyl-β-D-glucoside (Anatrace, Maumee, OH) and 0.05% BSA. All steps were performed at room temperature (23° C.). The assay was performed by pre-incubating serial dilutions of test compounds with the target HDAC prior to initiation with substrate. Each compound was titrated in a 10-point dose response, using a 1:3 fold dilution scheme, with 0.15 ul of solution added by ECHO555 to the plate, followed by the addition of 20 μl of the appropriate HDAC isoform diluted in appropriate assay buffer. […] Final conditions used for each assay were: 1. HDAC 1, 0.3 nM total enzyme, 20 μM substrate BML-K1104; 2. HDAC 2, 1.5 nM total enzyme, 40 μM substrate BML-K1104; 3. HDAC 3/SMRT, 0.3 nM total enzyme, 20 μM substrate BML-K1104; 4. HDAC 6, 1.3 nM total enzyme, 2.5 μM substrate BML-K1104; 5. HDAC 8, 1.3 nM total enzyme, 200 μM substrate BML-K1178; the final high dose of test compound was 30 μM. […] The reactions were stopped and developed by addition of 30 ul of HDAC developer solution containing a saturating level of HDAC inhibitor as follows: 1.

Assay [1] addresses T2, human HDAC3/SMRT heterodimer (Homo sapiens, UniProt O15379).
T2 construct: Full length human HDAC3-FLAG was expressed in HEK-293F cells along with SMRT; host or cells: HEK-293F cells
The assay can be described thus: Human HDAC enzyme inhibitor Fluor-de-Lys assay, HDAC3/SMRT. The settings on record: HDAC3/SMRT 0.3 nM enzyme, 20 μM substrate BML-KI104, 10 μM IP4, 3 h pre-incubation, 60 min reaction; read-out: HDAC3_IC50.
Excerpt: as §1, §2, §3, §4

A further assay concerns the target T3, HDAC6 (Homo sapiens, UniProt Q9UBN7).
T3 sequence (Q9UBN7 1-1215): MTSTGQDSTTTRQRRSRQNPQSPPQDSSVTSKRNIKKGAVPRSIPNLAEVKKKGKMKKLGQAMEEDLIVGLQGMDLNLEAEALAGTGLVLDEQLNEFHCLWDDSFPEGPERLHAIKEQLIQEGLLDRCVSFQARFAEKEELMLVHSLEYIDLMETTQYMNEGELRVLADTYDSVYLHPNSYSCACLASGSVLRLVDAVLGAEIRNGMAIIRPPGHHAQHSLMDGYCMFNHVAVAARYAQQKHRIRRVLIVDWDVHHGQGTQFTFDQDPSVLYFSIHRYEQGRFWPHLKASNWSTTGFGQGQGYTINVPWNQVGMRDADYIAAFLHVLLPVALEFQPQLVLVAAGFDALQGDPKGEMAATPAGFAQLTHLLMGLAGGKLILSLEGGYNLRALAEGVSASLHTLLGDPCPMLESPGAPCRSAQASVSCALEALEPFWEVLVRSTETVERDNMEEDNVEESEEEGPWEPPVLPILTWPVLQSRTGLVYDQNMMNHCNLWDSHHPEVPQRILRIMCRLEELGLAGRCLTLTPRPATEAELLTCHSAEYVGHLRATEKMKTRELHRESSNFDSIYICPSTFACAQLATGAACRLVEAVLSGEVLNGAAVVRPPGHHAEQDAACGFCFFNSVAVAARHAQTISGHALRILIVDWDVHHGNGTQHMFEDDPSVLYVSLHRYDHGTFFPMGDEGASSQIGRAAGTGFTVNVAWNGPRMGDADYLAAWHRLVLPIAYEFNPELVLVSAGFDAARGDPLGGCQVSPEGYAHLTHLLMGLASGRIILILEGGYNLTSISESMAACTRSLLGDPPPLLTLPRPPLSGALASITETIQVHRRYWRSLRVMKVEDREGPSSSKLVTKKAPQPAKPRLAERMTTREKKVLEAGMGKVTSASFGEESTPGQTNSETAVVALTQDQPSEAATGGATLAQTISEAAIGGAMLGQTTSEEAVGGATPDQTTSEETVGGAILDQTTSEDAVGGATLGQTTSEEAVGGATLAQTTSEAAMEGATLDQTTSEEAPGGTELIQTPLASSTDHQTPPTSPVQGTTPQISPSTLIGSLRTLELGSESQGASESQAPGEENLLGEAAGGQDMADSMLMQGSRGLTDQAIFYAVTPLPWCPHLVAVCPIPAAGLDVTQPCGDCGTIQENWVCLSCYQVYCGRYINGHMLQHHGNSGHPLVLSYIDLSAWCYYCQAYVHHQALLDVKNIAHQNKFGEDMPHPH
The assay can be described thus: Human HDAC enzyme inhibitor Fluor-de-Lys assay, HDAC6. The settings on record: 1.3 nM enzyme, 2.5 μM substrate BML-KI104, 3 h pre-incubation, 60 min reaction; read-out: HDAC6_IC50.
Excerpt: as §1, §3
(§5) The HDAC 1, 2 assays employed buffer A, which contained 20 mM HEPES, pH 8.0, 1 mM MgCl2, 137 mM NaCl, 2.7 mM KCl, 0.05% BSA. The HDAC3/SMRT assay employed buffer B, consisting of 20 mM HEPES, pH 8.0, 1 mM MgCl2, 50 mM NaCl, 2.7 mM KCl, 0.05% BSA, 0.005% Tween 20, and 10 μM IP4. The HDAC6 assay employed buffer C, consisting of 20 mM HEPES, pH 8.0, 1 mM MgCl2, 137 mM NaCl, 2.7 mM KCl, 0.5 mM TCEP (Calbiochem) and 0.05% BSA. The HDAC8 assay employed buffer D, consisting of 20 mM HEPES, pH 8.0, 1 mM MgCl2, 100 mM NaCl, 20 mM KCl, 0.1% n-octyl-β-D-glucoside (Anatrace, Maumee, OH) and 0.05% BSA. All steps were performed at room temperature (23° C.). The assay was performed by pre-incubating serial dilutions of test compounds with the target HDAC prior to initiation with substrate. Each compound was titrated in a 10-point dose response, using a 1:3 fold dilution scheme, with 0.15 ul of solution added by ECHO555 to the plate, followed by the addition of 20 μl of the appropriate HDAC isoform diluted in appropriate assay buffer. […] Final conditions used for each assay were: 1. HDAC 1, 0.3 nM total enzyme, 20 μM substrate BML-K1104; 2. HDAC 2, 1.5 nM total enzyme, 40 μM substrate BML-K1104; 3. HDAC 3/SMRT, 0.3 nM total enzyme, 20 μM substrate BML-K1104; 4. HDAC 6, 1.3 nM total enzyme, 2.5 μM substrate BML-K1104; 5. HDAC 8, 1.3 nM total enzyme, 200 μM substrate BML-K1178; the final high dose of test compound was 30 μM. For potent compounds, 900 nM was used as the final high dose. The reactions were stopped and developed by addition of 30 ul of HDAC developer solution containing a saturating level of HDAC inhibitor as follows: 1.

A further assay has as its target T4, human HDAC8 (Homo sapiens, UniProt Q9BY41).
T4 construct: purchased Enzo Life Sciences BML-SE145-0100
T4 sequence (Q9BY41 1-377): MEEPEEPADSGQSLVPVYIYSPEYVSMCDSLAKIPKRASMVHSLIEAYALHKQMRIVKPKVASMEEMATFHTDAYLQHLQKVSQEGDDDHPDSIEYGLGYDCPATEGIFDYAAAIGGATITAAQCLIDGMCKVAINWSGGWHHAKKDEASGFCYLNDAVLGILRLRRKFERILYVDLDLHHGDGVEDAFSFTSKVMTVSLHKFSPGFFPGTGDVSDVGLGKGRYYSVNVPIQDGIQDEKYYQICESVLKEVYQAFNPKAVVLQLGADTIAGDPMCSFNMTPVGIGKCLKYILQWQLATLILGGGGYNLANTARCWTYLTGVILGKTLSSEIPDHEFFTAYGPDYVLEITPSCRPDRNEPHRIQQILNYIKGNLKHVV
The assay can be described thus: Human HDAC enzyme inhibitor Fluor-de-Lys assay, HDAC8. The settings on record: 1.3 nM enzyme, 200 μM substrate BML-KI178, 3 h pre-incubation, 60 min reaction; read-out: HDAC8_IC50.
Excerpt: as §1, §3, §5

Each structure is given as a SMILES string. pIC50: −log10 of the molar value.

T1 sequence (Q92769 whole entry): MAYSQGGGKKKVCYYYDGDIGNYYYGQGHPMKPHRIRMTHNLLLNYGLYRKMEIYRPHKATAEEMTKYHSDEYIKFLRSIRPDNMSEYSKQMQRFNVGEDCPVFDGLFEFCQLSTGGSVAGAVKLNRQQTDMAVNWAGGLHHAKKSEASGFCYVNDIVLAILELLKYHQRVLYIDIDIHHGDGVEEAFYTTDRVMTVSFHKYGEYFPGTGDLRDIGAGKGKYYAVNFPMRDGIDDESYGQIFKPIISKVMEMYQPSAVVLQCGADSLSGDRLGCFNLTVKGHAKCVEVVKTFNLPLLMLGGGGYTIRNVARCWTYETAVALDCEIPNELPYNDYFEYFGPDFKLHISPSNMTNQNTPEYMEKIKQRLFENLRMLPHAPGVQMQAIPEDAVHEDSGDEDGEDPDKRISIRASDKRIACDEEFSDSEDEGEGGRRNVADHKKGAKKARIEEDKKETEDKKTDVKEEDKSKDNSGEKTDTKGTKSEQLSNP
T2 sequence (O15379 whole entry): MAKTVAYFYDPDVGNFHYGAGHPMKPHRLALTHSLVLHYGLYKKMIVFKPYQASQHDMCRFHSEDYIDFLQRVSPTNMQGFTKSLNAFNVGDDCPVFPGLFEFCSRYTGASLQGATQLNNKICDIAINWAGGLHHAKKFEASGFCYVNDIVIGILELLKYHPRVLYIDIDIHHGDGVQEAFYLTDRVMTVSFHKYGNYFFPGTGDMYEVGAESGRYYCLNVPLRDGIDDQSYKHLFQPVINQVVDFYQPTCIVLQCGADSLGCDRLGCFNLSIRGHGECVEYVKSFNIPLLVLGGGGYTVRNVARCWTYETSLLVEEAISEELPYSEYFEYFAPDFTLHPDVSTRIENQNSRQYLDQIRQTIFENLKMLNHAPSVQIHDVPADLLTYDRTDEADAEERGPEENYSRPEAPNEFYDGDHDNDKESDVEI
T2 sequence (Q9Y618 1-899 partner limits assumed): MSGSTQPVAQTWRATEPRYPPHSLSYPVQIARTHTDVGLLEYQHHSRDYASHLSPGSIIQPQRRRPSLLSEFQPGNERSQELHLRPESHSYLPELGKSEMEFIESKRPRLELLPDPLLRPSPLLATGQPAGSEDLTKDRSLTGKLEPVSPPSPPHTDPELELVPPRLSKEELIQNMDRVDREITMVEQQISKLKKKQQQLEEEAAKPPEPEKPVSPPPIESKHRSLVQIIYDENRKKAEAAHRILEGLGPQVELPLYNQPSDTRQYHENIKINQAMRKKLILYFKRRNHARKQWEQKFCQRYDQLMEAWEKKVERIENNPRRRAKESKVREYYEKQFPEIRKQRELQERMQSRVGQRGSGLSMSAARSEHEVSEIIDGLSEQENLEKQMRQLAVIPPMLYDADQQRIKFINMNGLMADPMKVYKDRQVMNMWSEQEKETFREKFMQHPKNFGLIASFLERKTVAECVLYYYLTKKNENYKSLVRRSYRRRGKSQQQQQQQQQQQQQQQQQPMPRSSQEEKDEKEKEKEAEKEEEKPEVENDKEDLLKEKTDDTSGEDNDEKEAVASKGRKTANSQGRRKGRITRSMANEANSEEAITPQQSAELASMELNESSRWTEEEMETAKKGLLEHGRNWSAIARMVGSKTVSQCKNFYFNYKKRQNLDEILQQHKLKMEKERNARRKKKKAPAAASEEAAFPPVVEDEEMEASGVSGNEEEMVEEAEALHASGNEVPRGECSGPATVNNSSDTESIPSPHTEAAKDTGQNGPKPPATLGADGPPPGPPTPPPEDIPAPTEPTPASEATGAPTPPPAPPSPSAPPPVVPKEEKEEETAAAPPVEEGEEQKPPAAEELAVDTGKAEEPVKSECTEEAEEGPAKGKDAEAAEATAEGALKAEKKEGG

For `CCC(=O)CCCOC[C@H](NC(=O)C1CN(C)C1)c1ncc(-c2cc3ccccc3nc2OC)[nH]1` [Compound 3, (R)—N-(1-(5-(2-methoxyquinolin-3-yl)-1H-imidazol-2-yl)-2-((4-oxohexyl)oxy)ethyl)-1-methylazetidine-3-carboxamide], the pIC50 at human HDAC2 is 5.36; in assay [1], 6.53.

In the case of `CCC(=O)CCCOC[C@H](NC(=O)[C@H]1CC12CCN(C)CC2)c1ncc(-c2cc3ccccc3nc2OC)[nH]1` [Compound 4, (S)—N—((R)-1-(5-(2-methoxyquinolin-3-yl)-1H-imidazol-2-yl)-2-((4-oxohexyl)oxy)ethyl)-6-methyl-6-azaspiro[2.5]octane-1-carboxamide], the pIC50 at HDAC6 is 4.63; at human HDAC8, below 4.35.
